Laboratory results published in patent US20260183302A1, “PDK1 REGULATORY COMPOUND AND COMPOSITION CONTAINING THE SAME” (PROVIBIO CO., LTD., priority 2024, published 2026).
Entries after “also recorded” stand apart in the source; their conditions may differ.

How the values were obtained:
[1] = tested on: T cells isolated from mouse spleens; test: T cell proliferation inhibition (CFSE flow cytometry, anti-CD3/anti-CD28 stimulation); assay type: cell-based, C57BL/6 mice; settings: three days
Method in brief: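 Splenic T cells from 7-week-old C57BL/6 mice, CFSE-labelled, 2× 10^5 cells/well, stimulated with anti-CD3 and anti-CD28 (0.5 μg/mL each). Compound at 10 nM-50 μM in triplicate for three days at 37 °C, 5% CO2; proliferation inhibition (%) derived by flow cytometry.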

[2] = tested on: HCT-116 colon cancer cell lines; test: Matrigel Invasion Assay on HCT-116 colon cancer cell line; assay type: cell-based, human; settings: HCT-116, Matrigel, 24 hours treatment, vs DMSO
Protocol: To evaluate the metastasis inhibitory efficacy of the compounds of the present invention on HCT-116 colon cancer cell lines, an Invasion Assay using Matrigel was performed to assess the cells' invasion ability.
First, Matrigel was thawed on ice in RPMI-1640 medium without FBS, then diluted with DMEM at a ratio of 1:20.
The diluted Matrigel mixture was applied to the upper chamber at 100 μl per well, and 750 μl of RPMI-1640 without FBS was added to the lower chamber.
The plates were then incubated at 37° C. for 1 hour to allow the Matrigel to solidify.
After coating, the Matrigel mixture in the upper chamber was removed using a pipette, and the chamber was washed with RPMI without FBS.
Human-derived colorectal cancer cell line HCT-116, obtained from the Korean Cell Bank, was cultured in RPMI-1640 medium containing 10% FBS.
Following stabilization, the cells were harvested using Trypsin-EDTA treatment, centrifuged at 1,200 rpm for 3 minutes, the supernatant was removed, and the cells were resuspended in the same medium, the medium in the lower chamber was replaced with 750 μl of RPMI-1640 supplemented with 10% FBS, and the cells were seeded into the upper chamber at a density of 5×10^4 cells/well.
The cells were cultured for 24 hours after attachment, and then the compounds according to the present invention (G078, G085, G086, G088, G089, PBK-2024-010, PBK-2025-010, PBK-2025-013, PBK-2025-016) and the control substance DMSO were diluted and added to the upper chamber after removing the medium.
Additionally, the medium in the lower chamber was replaced with fresh RPMI-1640 containing FBS, and the culture was continued.
After an additional 24 hours, the medium was removed, and 1 ml of methanol was added for 10 minutes to fix the cells.
Subsequently, 1 ml of Hematoxylin was added and reacted for 5 minutes, followed by 1 ml of Eosin, which was reacted for 30 seconds. The sample was then washed with distilled water (DW).
After staining was complete, any remaining cells in the upper chamber were removed. Finally, the infiltrated cells were observed under a microscope, photographed, and the degree of infiltration was analyzed.

psoriasis-induced mice = test: In vivo psoriasis model (Aldara cream, Imiquimod); set-up: species or system BALB/c mice
Protocol: To verify the therapeutic effect of the compound according to the present invention on psoriasis, a psoriasis animal model was established as follows, and the compound according to the present invention was administered to evaluate the alleviation of skin lesions and changes in immune cell patterns.
For the establishment of the psoriasis animal model, BALB/c mice (7 weeks old, female, 20 g) were purchased from HanabioTech Co., Ltd. and acclimatized to the rearing environment for one week.
Subsequently, the hair on the mouse back was shaved using a hair removal device for the first time, and then completely shaved using a depilatory cream (Nicrin Cream (80% thioglycolic acid, Il Dong Pharmaceutical)) for the second time. The mice were then kept for 24 hours to confirm the absence of skin damage.
To verify the psoriasis prevention and therapeutic effects of the compounds according to the present invention, the following experimental groups were established:
[Normal control group (Normal, Not Treatment), psoriasis-induced control group (Psoriasis, Not Treatment), psoriasis-induced vehicle control group (Psoriasis, Vehicle), experimental group (GO85, GO86, GO88, GO89, PBK-2024-010, PBK-2024-026, PBK-2025-002, PBK-2025-004, PBK-2025-016, PBK-2025-017, PBK-2025-023)]. […]
Body weights of mice in each group were measured on days 1, 4, and 8 after the start of injection and psoriasis induction. […]
To evaluate the therapeutic effect in a psoriasis-induced mouse model, the PASI (Psoriasis Area and Severity Index) score was measured.
The PASI score is based on three criteria: erythema, scaling, and skin thickness, each scored from 0 (none) to 4 (severe). […]
Observations were conducted daily at the same time, and the same observer visually assessed each criterion and recorded the scores, with the results presented in FIG. 13. […]
All samples were measured in duplicate, and the absorbance was measured at 450 nm using a microplate reader.

[3] = tested on: Human B Lymphocyte cell line, SU-DHL-8; test: Relative cell viability, SU-DHL-8 (CCK-8); assay type: cell-based; settings: 48 hours, untreated (DMSO) = 100%
Protocol: Human-derived B lymphoma cell line SU-DHL-8 (Cat. #CRL-2961) purchased from ATCC was cultured in RPMI-1640 medium containing 10% FBS, 100 U/mL penicillin, and 100 μg/mL streptomycin.
The cell culture medium was then harvested, centrifuged at 1,300 rpm for 5 minutes, and the supernatant was removed. The cells were resuspended in the same medium and dispensed into a 96-well plate (Costar 96-well cell culture plate, Corning) at 90 μL per well, resulting in the conditions specified in Table 5.
Then, 10 μL of CCK-8 was added to each well, and the plates were incubated again at 37° C. in a 5% CO2 incubator for 4 hours.
In other words, when the survival rate of untreated cells (DMSO) is set at 100%, the relative cell survival rate in each group treated with the drug at different concentrations is indicated.

[4] = tested on: PDK1 phosphorylation in SU-DHL-8 cells; test: PDK1 phosphorylation inhibition by flow cytometry (pPDK1-PE) in SU-DHL-8 cells; assay type: cell-based, human; settings: SU-DHL-8, 24 hours, vs control group, listed as GO48
Protocol: After stabilizing the cells, the compound of the present invention was added, and the cells were cultured for 24 hours.
After drug treatment, the cells were harvested, and the Fc receptor blocking process was performed. The cells were then fixed and permeabilized using the Intracellular Staining Kit (Cat. No. BD554715) from BD Biosciences. Subsequently, the intracellular pPDK1 was stained using the pPDK1-PE fluorescently labeled antibody (BD Biosciences).
Referring to the figure, the vertical axis represents the phosphorylation level of PDK1 (phospho-PDK1 expression level), and the horizontal axis denotes the concentration-dependent treatment conditions of each compound.

[5] = tested on: MRL/lpr mice with hair loss in the facial region; test: Hair loss treatment and hair follicle Ki-67 IHC in MRL/lpr mice; assay type: in vivo; settings: 41-week-old female MRL/lpr; GO15F (30 mg/kg), GO48 (1 mg/kg), GO88 (0.5 mg/kg) intraperitoneal once daily
Protocol: Additionally, in 41-week-old female MRL/Ipr mice, the compounds GO15F (30 mg/kg), GO48 (1 mg/kg), and GO88 (0.5 mg/kg) were administered intraperitoneally once daily.
To confirm the proliferative activity of hair follicle cells in the skin tissue of these mice, the mice were sacrificed 14 days after administration of the compounds of the present invention, and Ki-67 immunohistochemistry (IHC) was performed.
For this purpose, the excised skin tissue was fixed in formalin, embedded in paraffin blocks, and stained with a Ki-67-specific antibody on tissue sections prepared as slides.

## 12-(4-hydroxypiperazin-1-yl)dodecyl-N-(6-aminopurazin-2-yl) carboxamide [Compound 10]
[1]; concentration 10 nM
  Proliferation inhibition rate (%): 100.00%
[1]; concentration 100 nM
  Proliferation inhibition rate (%): 100.00%
[1]; concentration 1 μM
  Proliferation inhibition rate (%): 100.00%
[1]; concentration 10 μM
  Proliferation inhibition rate (%): 100.00%
[1]; concentration 30 μM
  Proliferation inhibition rate (%): 100.00%
[1]; concentration 50 μM
  Proliferation inhibition rate (%): 100.00%
[2]
  number of infiltrated cells (invasion): reduction in the number of infiltrated cells

## Nc1nc(NC(=O)CCCCCCCCCCCCN2CCN(CCO)CC2)nc2nc[nH]c12 [Compound 15, 12-[4-(2-hydroxyethyl)piperazin-1-yl]dodecyl-N-(6-aminopurine-2-yl) carboxamide]
psoriasis-induced mice
  efficacy in improving dermatological symptoms: excellent efficacy in improving dermatological symptoms
[2]
  number of infiltrated cells (invasion): reduction in the number of infiltrated cells

## CC(C)(C)OC(=O)N[C@H]1CCN(CCCCCCCCCCCCNC(=O)c2cccnc2N)C1 [Compound 49, tert-Butyl(S)-(1-(12-(2-aminonicotinamido)dodecyl)pyrrolidin-3-yl) carbamate]
[1]; concentration 100 nM
  Proliferation inhibition rate (%): 100.00%
[1]; concentration 1 μM
  Proliferation inhibition rate (%): 100.00%
[1]; concentration 10 μM
  Proliferation inhibition rate (%): 100.00%
[1]; concentration 30 μM
  Proliferation inhibition rate (%): 100.00%
[1]; concentration 50 μM
  Proliferation inhibition rate (%): 100.00%
[3]; SU-DHL-8, 1 μM
  Relative cell viability (%): 8.93%
[3]; SU-DHL-8, 10 μM
  Relative cell viability (%): 8.02%
[3]; SU-DHL-8, 30 μM
  Relative cell viability (%): 7.48%
[3]; SU-DHL-8, 50 μM
  Relative cell viability (%): 4.09%
[2]
  number of infiltrated cells (invasion): reduction in the number of infiltrated cells

## Nc1ncccc1C(=O)NCCCCCCCCCCCCN1CCOCC1 [Compound 2, 2-amino-N-(12-morpholin-4-yl-dodecyl)-nicotinamide]
[4]
  phospho-PDK1 expression level: stronger PDK1 inhibition; also recorded: high inhibitory effects even at low concentrations
[5]
  hair growth on the facial region: hair growth was confirmed
